This is an account of results in patent US8501713B2, “Drug combinations for the treatment of duchenne muscular dystrophy” (Summit Corporation PLC, priority 2007, dated 2013).

The structures appear in SMILES notation.

In this test the test system is Utrophin A promoter linked to a luciferase reporter gene. The test is described as follows: Luciferase reporter assay (murine H2K cells). Type of test: cell-based. The following applies: Mus musculus, H2K mdx, luciferase level relative to control; H2K/mdx/Utro A reporter cells; compound 10 μM final concentration; read-out: Activity. As for the experimental part:
1. Luciferase Reporter Assay (Murine H2K Cells)
The cell line used for the screen is an immortalized mdx mouse H2K cell line that has been stably transfected with a plasmid containing […] fragment of the Utrophin A promoter including the first untranslated exon linked to a luciferase reporter gene. Under conditions of low temperature and interferon containing media, the cells remain as myoblasts. These are plated into 96 well plates and cultured in the presence of compound for three days. The level of luciferase is then determined by cell lysis and reading of the light output from the expressed luciferase gene utilising a plate luminometer.
H2K/mdx/Utro A reporter Cell Line Maintenance
The cells were grown at 33° C. in the presence of 10% CO2. To remove the myoblasts for platting, they were incubated with Trypsin EDTA until the monolayer started to detach.
The plates were then incubated at 33° C. in the presence of 10% CO2 for 24 hrs. Compounds were dosed by adding 10 μl of diluted compound to each well giving a final concentration of 10 μM. The plates were then incubated for a further 48 hrs. Cells were then lysed in situ following the manufacture's protocols (Promega Steady-Glo Luciferase Assay System (E2520). Then counted for 10 seconds using a plate luminometer (Victor1420).
Compounds for screening were stored at −20° C. as 10 mM stocks in 100% DMSO until required.
Biological activity as assessed using the luciferase reporter assay in murine H2K cells, and is classified as follows: […]
In general terms: Reporter assays use an easily measured gene product as a stand-in for the process of interest.

On to `CCN(CC)c1ccc(-c2nc3cc(NC(=O)c4ccc(N(C)C)cc4)ccc3o2)cc1` [Example 67, N-(2-(4-(diethylamino)phenyl)benzo[d]oxazol-5-yl)-4-(dimethylamino)benzamide], for which the activity at 10 µM was in the range of 201 to 300%.

As to `CCN(CC)c1ccc(-c2nc3cc(NC(=O)c4ccc(Cl)c(Cl)c4)ccc3o2)cc1` [Example 68, 3,4-dichloro-N-(2-(4-(diethylamino)phenyl)benzo[d]oxazol-5-yl)benzamide], the activity at 10 µM was less than 200%.

With `CCN(CC)c1ccc(-c2nc3cc(NC(=O)c4ccc(C(F)(F)F)cc4)ccc3o2)cc1` [Example 69, N-(2-(4-(diethylamino)phenyl)benzo[d]oxazol-5-yl)-4-(trifluoromethyl)benzamide], the activity at 10 µM is less than 200%.

For `CCN(CC)c1ccc(-c2nc3cc(NC(=O)c4cc(Cl)cc(Cl)c4)ccc3o2)cc1` [Example 70, 3,5-dichloro-N-(2-(4-(diethylamino)phenyl)benzo[d]oxazol-5-yl)benzamide], the activity at 10 µM was less than 200%.

For the compound `CCN(CC)c1ccc(-c2nc3cc(NC(=O)c4ccc(F)cc4)ccc3o2)cc1` [Example 71, N-(2-(4-(diethylamino)phenyl)benzo[d]oxazol-5-yl)-4-fluorobenzamide], the activity at 10 µM was less than 200%.

Take `CCN(CC)c1ccc(-c2nc3cc(NC(=O)c4ccc(-c5ccccc5)cc4)ccc3o2)cc1` [Example 72, N-(2-(4-(diethylamino)phenyl)benzo[d]oxazol-5-yl)biphenyl-4-carboxamide]: the activity at 10 µM was less than 200%.

As for `CCN(CC)c1ccc(-c2nc3cc(NC(=O)Cc4ccccc4)ccc3o2)cc1` [Example 73, N-(2-(4-(diethylamino)phenyl)benzo[d]oxazol-5-yl)-2-phenylacetamide], the activity at 10 µM was 201 to 300%.

`CCN(CC)c1ccc(-c2nc3cc(NC(=O)CCc4ccccc4)ccc3o2)cc1` [Example 74, N-(2-(4-(diethylamino)phenyl)benzo[d]oxazol-5-yl)-3-phenylpropanamide]: the activity at 10 µM is less than 200%.

In the case of `CCC(=O)Nc1ccc2oc(-c3ccc(N(CC)CC)cc3)nc2c1` [Example 75, N-(2-(4-(diethylamino)phenyl)benzo[d]oxazol-5-yl)propionamide], the activity at 10 µM is 201 to 300%.

For `CCCC(=O)Nc1ccc2oc(-c3ccc(N(CC)CC)cc3)nc2c1` [Example 76, N-(2-(4-(diethylamino)phenyl)benzo[d]oxazol-5-yl)butyramide], the activity at 10 µM was less than 200%.

Turning to `CCCCC(=O)Nc1ccc2oc(-c3ccc(N(CC)CC)cc3)nc2c1` [Example 77, N-(2-(4-(diethylamino)phenyl)benzo[d]oxazol-5-yl)pentanamide], the activity at 10 µM fell in the range of 201 to 300%.

Turning to `CCN(CC)c1ccc(-c2nc3cc(NC(=O)C(C)C)ccc3o2)cc1` [Example 78, N-(2-(4-(diethylamino)phenyl)benzo[d]oxazol-5-yl)isobutyramide], the activity at 10 µM was less than 200%.

Consider `CCN(CC)c1ccc(-c2nc3cc(NC(=O)c4cccs4)ccc3o2)cc1` [Example 79, N-(2-(4-(diethylamino)phenyl)benzo[d]oxazol-5-yl)thiophene-2-carboxamide], for which the activity at 10 µM was less than 200%.

In the case of `CCCc1ccc2oc(-c3cccc(C(=O)O)c3)nc2c1` [Example 80, 3-(5-propylbenzo[d]oxazol-2-yl)benzoic acid], the activity at 10 µM was less than 200%.

`O=C(Nc1ccc2oc(-c3cccnc3)nc2c1)c1cccnc1` [Example 81, N-(2-(pyridin-3-yl)benzo[d]oxazol-5-yl)nicotinamide]: the activity at 10 µM is less than 200%.

Turning to `Nc1ccc(-c2nc3cc(N)ccc3o2)c(O)c1` [Example 82, 5-amino-2-(5-aminobenzo[d]oxazol-2-yl)phenol], the activity at 10 µM lay in the range of 201 to 300%.

For `COc1ccc(C(=O)Nc2ccc3oc(-c4ccc(OC)cc4)nc3c2)cc1` [Example 83, 4-methoxy-N-(2-(4-methoxyphenyl)benzo[d]oxazol-5-yl)benzamide], the activity at 10 µM is less than 200%.

On to `CCS(=O)(=O)c1ccc2oc(-c3ccccc3)nc2c1` [Example 84, 5-(ethylsulfonyl)-2-phenylbenzo[d]oxazole], for which the activity at 10 µM is 201 to 300%.
